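Five compound concentrations were applied to cells in 96-well plates for 48 hours; endpoints were derived by simple linear interpolation of the resulting dose-response curve. The concentration for full growth arrest is given as TGI.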
How the values were obtained:
Assay in all cases: growth of human tumour cells (NCI), 48 h
UACC-257 melanoma = test system: UACC-257 melanoma
HOP-62 NSCLC = test system: HOP-62 NSCLC
NCI-H23 lung = test system: NCI-H23 lung
OVCAR-3 ovarian = test system: OVCAR-3 ovarian
K-562 leukemia = test system: K-562 leukemia
DU-145 prostate = test system: DU-145 prostate
SF-268 CNS = test system: SF-268 CNS
MALME-3M melanoma = test system: MALME-3M melanoma
OVCAR-5 ovarian = test system: OVCAR-5 ovarian
PC-3 prostate = test system: PC-3 prostate
RXF 393 renal = test system: RXF 393 renal
UO-31 renal = test system: UO-31 renal
OVCAR-8 ovarian = test system: OVCAR-8 ovarian
HCT-15 colon = test system: HCT-15 colon
BT-549 breast = test system: BT-549 breast
NCI-H460 lung = test system: NCI-H460 lung
U251 CNS = test system: U251 CNS
SK-MEL-5 melanoma = test system: SK-MEL-5 melanoma

Compound	TGI (UACC-257 melanoma)	TGI (HOP-62 NSCLC)	TGI (NCI-H23 lung)	TGI (OVCAR-3 ovarian)	TGI (K-562 leukemia)	TGI (DU-145 prostate)	TGI (SF-268 CNS)	TGI (MALME-3M melanoma)	TGI (OVCAR-5 ovarian)	TGI (PC-3 prostate)	TGI (RXF 393 renal)	TGI (UO-31 renal)	TGI (OVCAR-8 ovarian)	TGI (HCT-15 colon)	TGI (BT-549 breast)	TGI (NCI-H460 lung)	TGI (U251 CNS)	TGI (SK-MEL-5 melanoma)
CSCCCNC(=O)c1csc(-c2csc(CCN)n2)n1	> 100 µM	> 100 µM	> 100 µM	> 100 µM	> 100 µM	> 100 µM	> 100 µM	> 100 µM	> 100 µM	> 100 µM	> 100 µM	> 100 µM	> 100 µM	> 100 µM	> 100 µM	> 100 µM	> 100 µM	> 100 µM
Cc1ccc2c(c1)SC(c1cc3c(cc1Br)OCO3)S2 (configuration not stated)	> 31.6 µM	> 31.6 µM	> 31.6 µM	> 31.6 µM	> 31.6 µM	–	> 31.6 µM	> 31.6 µM	> 31.6 µM	–	> 31.6 µM	> 31.6 µM	> 31.6 µM	> 31.6 µM	–	> 31.6 µM	> 31.6 µM	> 31.6 µM
CCOC(=O)[C@H]1Nc2ccc(Cl)cc2[C@H]2OCC[C@@H]12	> 100 µM	> 100 µM	> 100 µM	> 100 µM	> 100 µM	–	> 100 µM	> 100 µM	> 100 µM	–	> 100 µM	–	> 100 µM	> 100 µM	–	> 100 µM	> 100 µM	> 100 µM
C[n+]1ccc(-c2cc[n+](C)cc2)cc1	3.09 µM	66.5 µM	> 29.3 µM	> 46.6 µM	> 100 µM	–	> 100 µM	0.981 µM	37.9 µM	–	3.93 µM	> 100 µM	> 100 µM	> 52.3 µM	–	> 33.5 µM	> 70.9 µM	> 35.6 µM
Cc1nc(-c2cc3c(ccc4ccccc43)oc2=O)cc2c1c(=O)oc1ccc3ccccc3c12	> 100 µM	> 100 µM	> 100 µM	> 100 µM	> 100 µM	> 100 µM	> 100 µM	> 100 µM	> 100 µM	> 100 µM	> 100 µM	> 100 µM	> 100 µM	> 100 µM	> 100 µM	> 100 µM	> 100 µM	> 100 µM
COC(=O)c1c2c(c(-c3ccccc3)c3c1-c1nc(Cl)ccc1CC3)CCc1ccc(Cl)nc1-2	> 100 µM	> 100 µM	> 100 µM	> 100 µM	> 100 µM	–	> 100 µM	> 100 µM	> 100 µM	–	> 100 µM	> 100 µM	> 100 µM	> 100 µM	–	> 100 µM	> 100 µM	> 100 µM
Cc1cc(N(CCCCl)CCCCl)ccc1C=Nc1cccc(Cl)c1	20.2 µM	–	27.7 µM	33.5 µM	22.7 µM	27.9 µM	48.4 µM	22.8 µM	12.6 µM	25.9 µM	35.5 µM	44.2 µM	24.3 µM	30.2 µM	–	22.6 µM	32.2 µM	27.4 µM
CC1(Br)C(=O)NC(=O)N(C2CC(N=[N+]=[N-])C(CO)O2)C1N=[N+]=[N-] (configuration not stated)	> 100 µM	> 100 µM	> 100 µM	> 100 µM	> 100 µM	–	> 100 µM	> 100 µM	> 100 µM	–	> 100 µM	> 100 µM	> 100 µM	> 100 µM	–	> 100 µM	> 100 µM	> 100 µM
NCCCCN(CCCN)Cc1ccccc1	> 100 µM	> 100 µM	> 100 µM	> 100 µM	> 100 µM	> 100 µM	> 100 µM	–	> 100 µM	> 100 µM	> 100 µM	> 100 µM	> 100 µM	> 100 µM	> 100 µM	> 100 µM	> 100 µM	> 100 µM
O=C(Nc1nc2ccccc2n1Cc1ccc(Cl)cc1)NC12CC3CC(CC(C3)C1)C2	> 100 µM	37.3 µM	58.4 µM	60.7 µM	> 100 µM	–	23.8 µM	62 µM	> 100 µM	–	64.5 µM	> 100 µM	–	> 100 µM	–	> 100 µM	46.9 µM	> 100 µM
Cc1nc2ccccc2c(=O)n1NC(=S)Nc1cccc(Cl)c1	> 100 µM	> 100 µM	> 100 µM	–	> 100 µM	–	> 100 µM	> 100 µM	> 100 µM	–	> 100 µM	> 100 µM	> 100 µM	> 100 µM	–	> 100 µM	> 100 µM	> 100 µM
O=C1Nc2cc([N+](=O)[O-])ccc2C(=O)N2CCC[C@@H]12	> 100 µM	> 100 µM	> 100 µM	> 100 µM	> 100 µM	> 100 µM	> 100 µM	–	> 100 µM	> 100 µM	> 100 µM	> 100 µM	> 100 µM	> 100 µM	> 100 µM	> 100 µM	> 100 µM	> 100 µM
COc1ccc(/C=C2\SC(c3ccc(OC)cc3)N(NC(=O)Cc3ccccc3)C2=O)cc1 (configuration not stated)	> 100 µM	> 100 µM	> 100 µM	–	> 100 µM	–	> 100 µM	> 100 µM	> 100 µM	–	> 100 µM	> 100 µM	> 100 µM	> 100 µM	–	> 100 µM	> 100 µM	> 100 µM
